For this assay, the target named is KfoC (Escherichia coli, UniProt Q8L0V4). Put plainly: preparative synthesis, HPLC. In kind it is biochemical. As to conditions: acceptor elongated to CS 7-mer.

The results in this text go back to publication PMC9294993 (ACS chemical biology, 2022).

Molecules are shown by their SMILES.

Sequence of KfoC (Q8L0V4 whole entry): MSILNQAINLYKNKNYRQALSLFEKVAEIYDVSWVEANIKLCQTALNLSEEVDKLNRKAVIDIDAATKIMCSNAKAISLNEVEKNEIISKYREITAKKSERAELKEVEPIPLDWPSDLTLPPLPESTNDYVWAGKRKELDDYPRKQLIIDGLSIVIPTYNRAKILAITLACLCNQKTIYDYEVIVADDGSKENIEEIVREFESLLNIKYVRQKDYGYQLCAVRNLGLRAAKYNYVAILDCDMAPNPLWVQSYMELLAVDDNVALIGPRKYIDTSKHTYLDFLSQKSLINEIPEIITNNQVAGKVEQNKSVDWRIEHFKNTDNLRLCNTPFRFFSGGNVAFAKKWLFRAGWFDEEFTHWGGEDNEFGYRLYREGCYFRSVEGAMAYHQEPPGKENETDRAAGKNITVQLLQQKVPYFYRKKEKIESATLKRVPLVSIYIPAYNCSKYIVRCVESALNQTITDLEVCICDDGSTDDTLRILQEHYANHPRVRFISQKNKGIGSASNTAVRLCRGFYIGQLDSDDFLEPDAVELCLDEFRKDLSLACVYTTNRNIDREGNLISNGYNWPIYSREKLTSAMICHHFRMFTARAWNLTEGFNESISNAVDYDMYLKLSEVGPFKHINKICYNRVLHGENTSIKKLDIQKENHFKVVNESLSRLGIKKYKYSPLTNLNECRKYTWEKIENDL

As to `O=C(O)[C@H]1O[C@@H](Oc2ccc([N+](=O)[O-])cc2)[C@H](O)[C@@H](O)[C@@H]1O` [4-nitrophenyl-β-D-glucuronide], the “preparative synthesis, HPLC” value is on record as “GlcA-pNP was first elongated to heptasaccharide CS 7-mer by KfoC”.
